Data reported in patent publication US20230108408A1, “OXALAMIDE SUBSTITUTED HETEROCYCLIC COMPOUNDS AS MODULATORS OF THE ARYL HYDROCARBON RECEPTOR (AHR)” (PHENEX PHARMACEUTICALS AG, priority 2020, published 2023).

Target: T1, AhR (Homo sapiens, UniProt P35869)
T1 construct: The HepG2 CYP1A1-Luc cells do express basal luciferase activity that can be increased via potent AhR agonists or decreased via potent AhR antagonists; endogenous in cells
T1 sequence (P35869 11-848): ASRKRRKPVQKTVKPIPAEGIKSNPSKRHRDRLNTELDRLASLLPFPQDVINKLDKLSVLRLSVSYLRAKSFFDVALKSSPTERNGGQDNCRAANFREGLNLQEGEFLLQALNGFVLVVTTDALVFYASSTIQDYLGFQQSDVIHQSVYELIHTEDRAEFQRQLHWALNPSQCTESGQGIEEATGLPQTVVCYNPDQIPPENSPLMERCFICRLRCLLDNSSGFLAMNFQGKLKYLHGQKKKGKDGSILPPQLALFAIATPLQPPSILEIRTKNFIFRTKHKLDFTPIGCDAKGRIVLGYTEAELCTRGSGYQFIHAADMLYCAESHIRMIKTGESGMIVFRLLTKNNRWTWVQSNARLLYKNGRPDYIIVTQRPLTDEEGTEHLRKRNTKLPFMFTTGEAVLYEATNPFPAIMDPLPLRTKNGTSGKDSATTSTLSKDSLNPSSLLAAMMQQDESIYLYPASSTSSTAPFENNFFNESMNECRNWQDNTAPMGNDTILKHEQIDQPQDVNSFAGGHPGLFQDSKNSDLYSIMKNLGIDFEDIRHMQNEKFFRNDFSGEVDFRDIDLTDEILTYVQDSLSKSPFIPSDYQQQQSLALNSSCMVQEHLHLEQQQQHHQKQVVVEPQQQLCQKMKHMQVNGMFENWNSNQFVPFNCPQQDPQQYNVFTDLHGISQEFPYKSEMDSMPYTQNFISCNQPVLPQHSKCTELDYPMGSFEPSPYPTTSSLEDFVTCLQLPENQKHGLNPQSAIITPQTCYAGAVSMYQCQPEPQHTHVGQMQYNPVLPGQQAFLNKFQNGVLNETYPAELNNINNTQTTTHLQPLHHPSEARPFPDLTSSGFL
Assay: AhR Direct Luciferase Reporter Assay in HepG2 Cells
Assay type: cell-based
Details: AhR antagonistic potency; HepG2 CYP1A1-Luc cells, 18 hours, no exogenous AhR agonist or 10 nM VAF347
Text: AhR Direct Luciferase Reporter Assay in HepG2 Cells.
A stable cell line (HepG2 CYP1A1-LUC) was used in which part of the promoter region of the human CYP1A1 gene is stably integrated into the genome of human HepG2 hepatocytes (DSZM #ACC 180) in front of a Photinus pyralis Firefly Luciferase gene. A 1210 bp fragment comprising part of the human CYP1A1 promoter was isolated via SacI and BgIII restriction digestion from Lightswitch Clone S714555 (SwitchGearGenomics) and inserted between the SacI and BgIII sites in pGL4.30 (Promega #E8481) in front of the Firefly Luciferase gene. The resulting vector was linearized with NotI, transfected into HepG2 cells (DSMZ #ACC 180) and stably transfected clones selected with 250 μg/ml Hygromycin B. After repetitive rounds of subcloning and testing for robustly regulated luciferase activity after AhR agonist stimulation, a stable clonal HepG2 CYP1A1-Luc cell line was selected.
The HepG2 CYP1A1-Luc cells do express basal luciferase activity that can be increased via potent AhR agonists or decreased via potent AhR antagonists, added to the growth medium of the cells.
In typical reporter assays performed with this cell line, cells are grown in 96-well plates and AhR modulators are titrated into the growth medium in serial dilutions in RPMI-1640 Medium (Sigma #R7509) supplemented with 8.6% fetal calf serum (Sigma #F7524) and containing either no exogenous AhR agonist or 10 nM of the potent AhR agonist VAF347 (Calbiochem #182690). Cells are further cultivated for 18 hours and luciferase activities are determined from extracts of cells in buffers containing D-Luciferine and ATP using a LUMIstar Optima microplate Luminometer from BMG Labtech.

SMILES	IC50 [µM]
N#Cc1ccc(C(F)(F)F)c(-c2cc3ccc(NC(=O)C(=O)NCc4ccccc4)nc3[nH]2)c1 [2/1, N^1-Benzyl-N^2-(2-(5-cyano-2-(trifluoromethyl)phenyl)-1H-pyrrolo[2,3-b]pyridin-6-yl)oxalamide]	0.1 to 1
CC1(O)CN(C(=O)C(=O)Nc2ccc3cc(-c4cc(C#N)ccc4C(F)(F)F)[nH]c3n2)C1 [Example 2, N-(2-(5-Cyano-2-(trifluoromethyl)phenyl)-1H-pyrrolo[2,3-b]pyridin-6-yl)-2-(3-hydroxy-3-methylazetidin-1-yl)-2-oxoacetamide]	0.1 to 1
CN1CCN(C(=O)C(=O)Nc2ccc3cc(-c4cc(C#N)ccc4C(F)(F)F)[nH]c3n2)CC1 [1/2]	> 1
N#Cc1ccc(C(F)(F)F)c(-c2cc3ccc(NC(=O)C(=O)N4CCCC4)nc3[nH]2)c1 [Example 1, N-(2-(5-Cyano-2-(trifluoromethyl)phenyl)-1H-pyrrolo[2,3-b]pyridin-6-yl)-2-oxo-2-(pyrrolidin-1-yl)acetamide]	< 0.1
CN(CC(F)(F)F)C(=O)C(=O)Nc1ccc2cc(-c3cc(C#N)ccc3C(F)(F)F)[nH]c2n1 [1/3]	< 0.1
CC1CCN1C(=O)C(=O)Nc1ccc2cc(-c3cc(C#N)ccc3C(F)(F)F)[nH]c2n1 (stereo not shown) [1/6]	< 0.1
N#Cc1ccc(C(F)(F)F)c(-c2cc3ccc(NC(=O)C(=O)N4CCC5(CC5)C4)nc3[nH]2)c1 [1/5]	< 0.1
N#Cc1ccc(C(F)(F)F)c(-c2cc3ccc(NC(=O)C(=O)N4CCOCC4)nc3[nH]2)c1 [1/1]	0.1 to 1
N#Cc1ccc(C(F)(F)F)c(-c2cc3ccc(NC(=O)C(=O)N4CCC4)nc3[nH]2)c1 [1/7]	0.1 to 1
COCCN(C)C(=O)C(=O)Nc1ccc2cc(-c3cc(C#N)ccc3C(F)(F)F)[nH]c2n1 [1/4]	0.1 to 1
